Measurements taken from ChEMBL document CHEMBL3407372, “Photodynamic effects induced by meso-tris(pentafluorophenyl)corrole and its cyclodextrin conjugates on cytoskeletal components of HeLa cells” (Eur J Med Chem, 2015).
Active and inactive are the calls of the source. No cut-off for these calls is given here.

Columns and labels:
HeLa [1] = test: Cytotoxicity against human HeLa cells assessed as survival fraction at 1x10'-7 M incubated 24 hrs in dark by MTT assay; assay type: functional; settings: read-out: Survival
HeLa [2] = test: Cytotoxicity against human HeLa cells assessed as survival fraction at 1x10'-5 M incubated 24 hrs in dark by MTT assay; assay type: functional; settings: read-out: Survival
HeLa [3] = test: Phototoxicity against human HeLa cells assessed as survival fraction at 1x10'-7 M incubated 24 hrs under 3 J/cm'2 red light with irradiance of 5 mW/cm'2 by MTT assay; assay type: functional; settings: light or radiation study, read-out: Survival
HeLa [4] = test: Phototoxicity against human HeLa cells assessed as survival fraction at 1x10'-7 M incubated 24 hrs under 6 J/cm'2 red light with irradiance of 5 mW/cm'2 by MTT assay; assay type: functional; settings: light or radiation study, read-out: Survival
HeLa [5] = test: Phototoxicity against human HeLa cells assessed as survival fraction at 1x10'-7 M incubated 24 hrs under 9 J/cm'2 red light with irradiance of 5 mW/cm'2 by MTT assay; assay type: functional; settings: light or radiation study, read-out: Survival
HeLa [6] = test: Phototoxicity against human HeLa cells assessed as survival fraction at 1x10'-5 M incubated 24 hrs under 3 J/cm'2 red light with irradiance of 5 mW/cm'2 by MTT assay; assay type: functional; settings: light or radiation study, read-out: Survival
HeLa [7] = test: Phototoxicity against human HeLa cells assessed as survival fraction at 1x10'-5 M incubated 24 hrs under 6 J/cm'2 red light with irradiance of 5 mW/cm'2 by MTT assay; assay type: functional; settings: light or radiation study, read-out: Survival
HeLa [8] = test: Phototoxicity against human HeLa cells assessed as survival fraction at 1x10'-5 M incubated 24 hrs under 9 J/cm'2 red light with irradiance of 5 mW/cm'2 by MTT assay; assay type: functional; settings: light or radiation study, read-out: Survival
HeLa [9] = test: Phototoxicity against human HeLa cells assessed as survival fraction at 1x10'-5 M incubated 24 hrs under 12 J/cm'2 red light with irradiance of 5 mW/cm'2 by MTT assay; assay type: functional; settings: light or radiation study, read-out: Survival
HeLa [10] = test: Phototoxicity against human HeLa cells assessed as lethality rate at 1x10'-5 M incubated 24 hrs under 3 J/cm'2 red light with irradiance of 5 mW/cm'2 by MTT assay; assay type: functional; settings: light or radiation study
HeLa [11] = test: Phototoxicity against human HeLa cells assessed as lethality rate at 1x10'-5 M incubated 24 hrs under 6 J/cm'2 red light with irradiance of 5 mW/cm'2 by MTT assay; assay type: functional
HeLa [12] = test: Drug uptake in human HeLa cells assessed as nucleus at 1x10'-5 M incubated 24 hrs by red emission under fluorescence microscopy; assay type: ADME, cell-based; settings: 10 µM
HeLa [13] = test: Drug uptake in human HeLa cells assessed as golgi apparatus at 1x10'-5 M incubated 24 hrs by mitotracker green; assay type: ADME, cell-based; settings: 10 µM
HeLa [14] = test: Phototoxicity against human HeLa cells assessed as changes in microtubular organization at LD20 concentration incubated 24 hrs under 12 J/cm'2 red light with irradiance of 5 mW/cm'2 by immunofluorescence staining; assay type: functional, cell-based
HeLa [15] = test: Phototoxicity against human HeLa cells assessed as abnormalities in chromosome disposition in metaphase plate at LD20 concentration incubated 24 hrs under 12 J/cm'2 red light with irradiance of 5 mW/cm'2 by immunofluorescence staining; assay type: functional, cell-based
HeLa [16] = test: Cytotoxicity against human HeLa cells assessed as survival fraction at 1x10'-4 M incubated 24 hrs in dark by MTT assay; assay type: functional; settings: read-out: Survival
HeLa [17] = test: Phototoxicity against human HeLa cells assessed as survival fraction at 1x10'-4 M incubated 24 hrs under 6 J/cm'2 red light with irradiance of 5 mW/cm'2 by MTT assay; assay type: functional; settings: light or radiation study, read-out: Survival
HeLa [18] = test: Phototoxicity against human HeLa cells assessed as survival fraction at 1x10'-4 M incubated 24 hrs under 9 J/cm'2 red light with irradiance of 5 mW/cm'2 by MTT assay; assay type: functional; settings: light or radiation study, read-out: Survival
HeLa [19] = test: Phototoxicity against human HeLa cells assessed as survival fraction at 1x10'-4 M incubated 24 hrs under 12 J/cm'2 red light with irradiance of 5 mW/cm'2 by MTT assay; assay type: functional; settings: light or radiation study, read-out: Survival
HeLa [20] = test: Phototoxicity against human HeLa cells assessed as lethality rate at 1x10'-5 M incubated 24 hrs under 9 J/cm'2 red light with irradiance of 5 mW/cm'2 by MTT assay; assay type: functional
HeLa [21] = test: Drug uptake in human HeLa cells assessed as located in granules at 1x10'-5 M incubated 24 hrs by red emission under fluorescence microscopy; assay type: ADME, cell-based; settings: 10 µM
HeLa [22] = test: Drug uptake in human HeLa cells assessed as located in cytoplasm at 1x10'-5 M incubated 24 hrs by red emission under fluorescence microscopy; assay type: ADME, cell-based; settings: 10 µM
HeLa [23] = test: Drug uptake in human HeLa cells assessed as lysosomes at 1x10'-5 M incubated 24 hrs by acridine orange staining; assay type: ADME, cell-based; settings: 10 µM
HeLa [24] = test: Drug uptake in human HeLa cells assessed as filamentous pattern of mitochondria at 1x10'-5 M incubated 24 hrs by mitotracker green; assay type: ADME, cell-based; settings: 10 µM
HeLa [25] = test: Drug uptake in human HeLa cells assessed as juxtanuclear portion at 1x10'-5 M incubated 24 hrs by ceramide; assay type: ADME, cell-based; settings: 10 µM
HeLa [26] = test: Phototoxicity against human HeLa cells assessed as changes in microtubular organization at LD70 concentration incubated 24 hrs under 12 J/cm'2 red light with irradiance of 5 mW/cm'2 by immunofluorescence staining; assay type: functional, cell-based
HeLa [27] = test: Phototoxicity against human HeLa cells assessed as abnormalities in chromosome disposition in metaphase plate at LD70 concentration incubated 24 hrs under 12 J/cm'2 red light with irradiance of 5 mW/cm'2 by immunofluorescence staining; assay type: functional, cell-based

Work on OC[C@H]1O[C@@H]2O[C@H]3O[C@H](COc4c(F)c(F)c(-c5c6ccc([nH]6)c(-c6c(F)c(F)c(F)c(F)c6F)c6nc(c(-c7c(F)c(F)c(F)c(F)c7F)c7ccc([nH]7)c7ccc5[nH]7)C=C6)c(F)c4F)[C@@H](O[C@H]4[C@H](O)[C@@H](O)[C@@H](O[C@H]5[C@H](O)[C@@H](O)[C@@H](O[C@H]6[C@H](O)[C@@H](O)[C@@H](O[C@H]7[C@@H](O)[C@@H](O)[C@@H](O[C@H]8[C@H](O)[C@@H](O)[C@@H](O[C@H]1[C@H](O)[C@H]2O)O[C@@H]8CO)O[C@@H]7CO)O[C@@H]6CO)O[C@@H]5CO)O[C@@H]4CO)[C@H](O)[C@H]3O yielded a viability at 0.1 µM (HeLa [1]) of 113%, a viability at 10 µM (HeLa [2]) of 162% and a viability at 0.1 µM (HeLa [3]) of 92%. For the same compound, the viability at 0.1 µM (HeLa [4]) was 80.2%, the viability at 0.1 µM (HeLa [5]) was 90.1% and the viability at 10 µM (HeLa [6]) was 93.6%. The viability at 10 µM (HeLa [7]) was 95.6%, the viability at 10 µM (HeLa [8]) was 81.6% and the viability at 10 µM (HeLa [9]) was 81.6%. For the same compound, the inhibition at 10 µM (HeLa [10]) was 20%, the Activity (HeLa [11]) was 22% and the Drug uptake (HeLa [12]) was “Active”. The Drug uptake (HeLa [13]) was “Active”, the Activity (HeLa [14]) was “Active” and the Activity (HeLa [15]) was “Active”.

OC[C@H]1O[C@@H]2O[C@H]3O[C@H](COc4c(F)c(F)c(-c5c6nc(c(-c7c(F)c(F)c(F)c(F)c7F)c7ccc([nH]7)c(-c7c(F)c(F)c(OC[C@H]8O[C@@H]9O[C@H]%10O[C@H](CO)[C@@H](O[C@H]%11O[C@H](CO)[C@@H](O[C@H]%12O[C@H](CO)[C@@H](O[C@H]%13O[C@H](CO)[C@@H](O[C@H]%14O[C@H](CO)[C@@H](O[C@H]%15O[C@H](CO)[C@@H](O[C@H]8[C@H](O)[C@H]9O)[C@H](O)[C@H]%15O)[C@H](O)[C@H]%14O)[C@H](O)[C@H]%13O)[C@@H](O)[C@H]%12O)[C@H](O)[C@H]%11O)[C@H](O)[C@H]%10O)c(F)c7F)c7ccc([nH]7)c7ccc5[nH]7)C=C6)c(F)c4F)[C@@H](O[C@H]4[C@H](O)[C@@H](O)[C@@H](O[C@H]5[C@H](O)[C@@H](O)[C@@H](O[C@H]6[C@H](O)[C@@H](O)[C@@H](O[C@H]7[C@@H](O)[C@@H](O)[C@@H](O[C@H]8[C@H](O)[C@@H](O)[C@@H](O[C@H]1[C@H](O)[C@H]2O)O[C@@H]8CO)O[C@@H]7CO)O[C@@H]6CO)O[C@@H]5CO)O[C@@H]4CO)[C@H](O)[C@H]3O gave a viability at 10 µM (HeLa [2]) of 121%, a viability at 100 µM (HeLa [16]) of 86% and a viability at 10 µM (HeLa [7]) of 121%. It also gave a viability at 10 µM (HeLa [8]) of 111%, a viability at 10 µM (HeLa [9]) of 57.6% and a viability at 100 µM (HeLa [17]) of 86%. It also gave a viability at 100 µM (HeLa [18]) of 85% and a viability at 100 µM (HeLa [19]) of 57.6%.

Compound Fc1c(F)c(F)c(-c2c3nc(c(-c4c(F)c(F)c(F)c(F)c4F)c4ccc([nH]4)c4ccc([nH]4)c(-c4c(F)c(F)c(F)c(F)c4F)c4ccc2[nH]4)C=C3)c(F)c1F has a viability at 10 µM (HeLa [2]) of 108%, a viability at 100 µM (HeLa [16]) of 117% and a viability at 10 µM (HeLa [6]) of 104%. The viability at 10 µM (HeLa [7]) was 80.9%, the viability at 10 µM (HeLa [8]) was 44.5% and the viability at 10 µM (HeLa [9]) was 38.5%. For the same compound, the Activity (HeLa [20]) was 70%, the Drug uptake (HeLa [21]) was “Active” and the Drug uptake (HeLa [22]) was “Active”. For the same compound, the Drug uptake (HeLa [23]) was “Active”, the Drug uptake (HeLa [24]) was “Active” and the Drug uptake (HeLa [25]) was “Active”. For the same compound, the Activity (HeLa [26]) was “Active” and the Activity (HeLa [27]) was “Active”.
